This note sets out measurements from ChEMBL document CHEMBL5154788 (Eur J Med Chem, 2022).

pIC50: −log10 of the molar value. Converted amounts (≈) assume the structure as drawn.

A word on the pIC50: it is the IC50 on a negative log10 scale, so that one unit is a factor of ten. One may read the AUC as concentration integrated over time. Low readings indicate low exposure, high ones high exposure. For orientation: MRT means the average time that molecules of a dose stay in the body. By Tmax is commonly meant the time from dosing to the highest level. One may read the Cmax as the maximum level reached in the sampled fluid or tissue. A word on the solubility: it is how much of the substance goes into solution per volume. One may read the bioavailability as dose-corrected exposure relative to a reference, in per cent. Low values mean little systemic uptake, high ones much systemic uptake.

In series [1] the target is Transient receptor potential cation channel subfamily V member 1 (Homo sapiens, UniProt Q8NER1). Kind of series: Antagonist activity at human TRPV1 expressed in CHO cells assessed as inhibition of capsaicin-induced Ca2+ influx incubated for 30 mins by FLIPR method. In kind it is cell-based.
Chain of Transient receptor potential cation channel subfamily V member 1 (Q8NER1 whole entry): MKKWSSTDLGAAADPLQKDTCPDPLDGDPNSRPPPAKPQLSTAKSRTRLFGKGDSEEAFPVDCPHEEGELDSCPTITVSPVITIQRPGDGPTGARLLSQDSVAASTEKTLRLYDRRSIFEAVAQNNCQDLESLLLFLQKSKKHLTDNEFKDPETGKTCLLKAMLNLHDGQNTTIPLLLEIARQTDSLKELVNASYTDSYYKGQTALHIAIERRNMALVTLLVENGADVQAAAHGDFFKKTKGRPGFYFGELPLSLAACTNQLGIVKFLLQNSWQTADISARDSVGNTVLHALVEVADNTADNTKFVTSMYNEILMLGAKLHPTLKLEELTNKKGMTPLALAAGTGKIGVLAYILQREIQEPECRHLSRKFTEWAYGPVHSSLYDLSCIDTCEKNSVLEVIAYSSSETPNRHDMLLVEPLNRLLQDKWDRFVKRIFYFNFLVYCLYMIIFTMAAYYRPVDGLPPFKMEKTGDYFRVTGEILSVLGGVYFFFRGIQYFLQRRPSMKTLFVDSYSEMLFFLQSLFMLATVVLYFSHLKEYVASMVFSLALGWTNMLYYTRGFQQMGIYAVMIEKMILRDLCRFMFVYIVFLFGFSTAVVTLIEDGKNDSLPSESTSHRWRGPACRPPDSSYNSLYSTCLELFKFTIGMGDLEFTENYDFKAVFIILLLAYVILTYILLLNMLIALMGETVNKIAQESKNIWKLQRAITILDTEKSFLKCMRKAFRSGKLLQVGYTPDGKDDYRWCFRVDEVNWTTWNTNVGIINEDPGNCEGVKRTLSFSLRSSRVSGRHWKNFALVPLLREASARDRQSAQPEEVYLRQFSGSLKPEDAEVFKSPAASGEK
A short description of series [2]: Drug concentration in rat plasma at 10 mg/kg, iv measured after 0.5 hrs by HPLC analysis. Type of series: ADME, organism-based.
Series [3] in a line: Half life in Sprague-Dawley rat at 10 mg/kg, iv measured after 12 hrs by UPLC-QTOF/MS analysis. Type of series: ADME, organism-based. Particulars: in vivo.
Series [4] is described as follows: AUC (0 to infinity) in Sprague-Dawley rat at 10 mg/kg, iv by UPLC-QTOF/MS analysis. Type of series: ADME, organism-based. On the set-up: time infinity, dose 10 mg/kg, route iv. Particulars: in vivo.
Series [5] in a line: MRT in Sprague-Dawley rat at 10 mg/kg, iv measured after 12 hrs by UPLC-QTOF/MS analysis. Particulars: in vivo. In kind it is ADME, organism-based.
Series [6] can be described thus: Elimination rate constant (K10) in Sprague-Dawley rat at 20 mg/kg, po measured after 12 hrs by UPLC-QTOF/MS analysis. To be noted: in vivo. Type of series: ADME, organism-based.
The nature of series [7]: Toxicity in rat assessed as effect on body temperature at 10 to 100 mg/kg, po measured for 120 mins by electric probe thermometer analysis. Type of series: organism-based. To be noted: in vivo, 2 h, dose 10-100 mg/kg.
A short description of series [8]: Elimination rate constant half life (k10) in Sprague-Dawley rat at 20 mg/kg, po measured after 12 hrs by UPLC-QTOF/MS analysis. Type of series: ADME, organism-based. To be noted: in vivo, read-out: beta t1/2 (converted).
Series [9] can be described thus: Elimination rate constant (K10) in Sprague-Dawley rat at 10 mg/kg, iv measured after 12 hrs by UPLC-QTOF/MS analysis. Particulars: in vivo. In kind it is ADME, organism-based.
Series [10] in a line: AUC (0 to infinity) in Sprague-Dawley rat at 20 mg/kg, po by UPLC-QTOF/MS analysis. Type of series: ADME, organism-based. On the set-up: time infinity, dose 20 mg/kg, route po. Particulars: in vivo.
Series [11] is described as follows: MRT in Sprague-Dawley rat at 20 mg/kg, po measured after 12 hrs by UPLC-QTOF/MS analysis. In kind it is ADME, organism-based. Particulars: in vivo.
Series [12] is described as follows: Volume of distribution in Sprague-Dawley rat at 20 mg/kg, po measured after 12 hrs post dose by UPLC-QTOF/MS analysis. Type of series: ADME, organism-based. To be noted: in vivo.
The nature of series [13]: Toxicity in rat assessed as increase in body temperature at 30 mg/kg, po measured for 180 mins by electric probe thermometer analysis. Type of series: organism-based. To be noted: in vivo, 3 h.
The nature of series [14]: Ratio of drug level in brain to plasma in rat at 10 mg/kg, iv measured after 0.5 hrs by HPLC analysis. Type of series: ADME, organism-based. Particulars: read-out: BPR.
A short description of series [15]: Clearance in Sprague-Dawley rat at 20 mg/kg, po measured after 12 hrs by UPLC-QTOF/MS analysis. In kind it is ADME, organism-based. Particulars: in vivo.
In series [16] the target is Transient receptor potential cation channel subfamily A member 1 (Homo sapiens, UniProt O75762). The series is described as follows: Antagonist activity against human TRPA1 expressed in HEK293 cells assessed as inhibition of AITC-induced intracellular calcium accumulation incubated for 30 mins by FLIPR assay. In kind it is cell-based. Background: Calcium assays in cells follow changes in intracellular calcium, usually with a dye or a luminescent sensor.
Chain of Transient receptor potential cation channel subfamily A member 1 (O75762 whole entry): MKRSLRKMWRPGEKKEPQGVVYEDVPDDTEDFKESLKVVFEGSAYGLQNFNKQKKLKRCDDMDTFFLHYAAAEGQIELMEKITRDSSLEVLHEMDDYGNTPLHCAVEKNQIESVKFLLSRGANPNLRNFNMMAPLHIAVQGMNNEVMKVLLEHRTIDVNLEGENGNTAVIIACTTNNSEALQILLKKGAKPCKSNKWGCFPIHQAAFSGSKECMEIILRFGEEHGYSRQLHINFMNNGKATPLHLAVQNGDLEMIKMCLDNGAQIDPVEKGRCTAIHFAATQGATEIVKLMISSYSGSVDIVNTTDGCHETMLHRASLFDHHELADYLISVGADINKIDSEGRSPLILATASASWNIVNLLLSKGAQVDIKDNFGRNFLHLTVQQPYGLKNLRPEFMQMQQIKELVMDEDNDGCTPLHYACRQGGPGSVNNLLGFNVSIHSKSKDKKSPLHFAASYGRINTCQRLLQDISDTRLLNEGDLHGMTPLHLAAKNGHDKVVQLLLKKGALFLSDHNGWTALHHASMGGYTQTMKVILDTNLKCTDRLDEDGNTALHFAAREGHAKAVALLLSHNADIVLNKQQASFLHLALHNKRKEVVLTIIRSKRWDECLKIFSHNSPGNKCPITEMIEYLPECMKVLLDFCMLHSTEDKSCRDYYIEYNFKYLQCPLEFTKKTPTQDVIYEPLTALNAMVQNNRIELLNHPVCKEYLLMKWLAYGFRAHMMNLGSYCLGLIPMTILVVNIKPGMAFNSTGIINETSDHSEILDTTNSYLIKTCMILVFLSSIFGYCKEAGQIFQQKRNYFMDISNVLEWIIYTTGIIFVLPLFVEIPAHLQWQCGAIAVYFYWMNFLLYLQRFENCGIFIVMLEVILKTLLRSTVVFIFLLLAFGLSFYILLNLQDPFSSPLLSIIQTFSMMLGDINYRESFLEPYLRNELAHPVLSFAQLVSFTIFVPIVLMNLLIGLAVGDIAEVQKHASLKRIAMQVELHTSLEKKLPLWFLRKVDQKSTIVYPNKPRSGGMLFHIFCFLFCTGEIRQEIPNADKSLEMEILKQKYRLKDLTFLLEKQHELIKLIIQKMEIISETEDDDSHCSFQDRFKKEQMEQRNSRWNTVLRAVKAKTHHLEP

Series [17] in a line: Tmax in Sprague-Dawley rat at 20 mg/kg, po measured after 12 hrs by UPLC-QTOF/MS analysis. Type of series: ADME, organism-based. To be noted: in vivo.
Series [18] can be described thus: Cmax in Sprague-Dawley rat at 20 mg/kg, po measured after 12 hrs by UPLC-QTOF/MS analysis. In kind it is ADME, organism-based. The arrangement: dose 20 mg/kg, time 12 hrs, route po. Particulars: in vivo.
The nature of series [19]: Clearance in Sprague-Dawley rat at 10 mg/kg, iv measured after 12 hrs by UPLC-QTOF/MS analysis. Type of series: ADME, organism-based. To be noted: in vivo.
Series [20] in a line: Aqueous solubility of compound at pH 7.4 incubated for 2 hrs by LC-UV/MS analysis. In kind it is physicochemical. To be noted: buffer.
A short description of series [21]: Oral bioavailability in Sprague-Dawley rat at 20 mg/kg measured after 12 hrs by UPLC-QTOF/MS analysis. Type of series: ADME, organism-based. Particulars: in vivo.
For series [22], the target named is T1, Transient receptor potential cation channel subfamily V member 3 (Homo sapiens, UniProt Q8NET8).
T1 sequence (Q8NET8 whole entry): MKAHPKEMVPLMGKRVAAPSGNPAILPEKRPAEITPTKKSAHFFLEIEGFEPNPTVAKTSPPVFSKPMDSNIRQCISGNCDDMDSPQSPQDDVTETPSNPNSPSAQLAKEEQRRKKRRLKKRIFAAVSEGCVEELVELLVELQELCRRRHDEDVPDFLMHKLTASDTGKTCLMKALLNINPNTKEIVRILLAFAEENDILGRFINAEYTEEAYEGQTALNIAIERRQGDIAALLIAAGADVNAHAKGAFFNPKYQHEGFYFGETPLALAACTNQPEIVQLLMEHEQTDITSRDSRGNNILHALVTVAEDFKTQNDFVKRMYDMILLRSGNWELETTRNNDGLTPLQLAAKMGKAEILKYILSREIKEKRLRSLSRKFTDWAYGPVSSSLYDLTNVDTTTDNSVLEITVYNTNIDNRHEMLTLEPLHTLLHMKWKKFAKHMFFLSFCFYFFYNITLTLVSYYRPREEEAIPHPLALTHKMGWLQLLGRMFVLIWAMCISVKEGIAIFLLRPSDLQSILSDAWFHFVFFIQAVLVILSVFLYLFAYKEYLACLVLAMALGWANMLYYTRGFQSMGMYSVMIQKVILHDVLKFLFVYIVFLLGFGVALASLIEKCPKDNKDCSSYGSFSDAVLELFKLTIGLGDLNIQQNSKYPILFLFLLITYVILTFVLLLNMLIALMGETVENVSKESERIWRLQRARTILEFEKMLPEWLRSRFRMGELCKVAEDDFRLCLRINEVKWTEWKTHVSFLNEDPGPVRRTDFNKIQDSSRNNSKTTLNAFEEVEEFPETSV
The series is described as follows: Antagonist activity against human TRPV3 expressed in HEK293 cells assessed as inhibition of 2-APb induced intracellular calcium accumulation incubated for 30 mins by FLIPR assay. Type of series: cell-based.

A short description of series [23]: Drug concentration in rat brain at 10 mg/kg, iv measured after 0.5 hrs by HPLC analysis. Particulars: read-out: Ct. In kind it is ADME, organism-based.
Series [24] concerns the target Transient receptor potential cation channel subfamily M member 8 (Homo sapiens, UniProt Q7Z2W7). Kind of series: Antagonist activity against human TRPM8 expressed in HEK293 cells assessed as inhibition of […]-gated currents by whole cell patch clamp electrophysiology. In kind it is cell-based. Background: In patch-clamp work, channel activity is measured electrically.

Chain of Transient receptor potential cation channel subfamily M member 8 (Q7Z2W7 whole entry): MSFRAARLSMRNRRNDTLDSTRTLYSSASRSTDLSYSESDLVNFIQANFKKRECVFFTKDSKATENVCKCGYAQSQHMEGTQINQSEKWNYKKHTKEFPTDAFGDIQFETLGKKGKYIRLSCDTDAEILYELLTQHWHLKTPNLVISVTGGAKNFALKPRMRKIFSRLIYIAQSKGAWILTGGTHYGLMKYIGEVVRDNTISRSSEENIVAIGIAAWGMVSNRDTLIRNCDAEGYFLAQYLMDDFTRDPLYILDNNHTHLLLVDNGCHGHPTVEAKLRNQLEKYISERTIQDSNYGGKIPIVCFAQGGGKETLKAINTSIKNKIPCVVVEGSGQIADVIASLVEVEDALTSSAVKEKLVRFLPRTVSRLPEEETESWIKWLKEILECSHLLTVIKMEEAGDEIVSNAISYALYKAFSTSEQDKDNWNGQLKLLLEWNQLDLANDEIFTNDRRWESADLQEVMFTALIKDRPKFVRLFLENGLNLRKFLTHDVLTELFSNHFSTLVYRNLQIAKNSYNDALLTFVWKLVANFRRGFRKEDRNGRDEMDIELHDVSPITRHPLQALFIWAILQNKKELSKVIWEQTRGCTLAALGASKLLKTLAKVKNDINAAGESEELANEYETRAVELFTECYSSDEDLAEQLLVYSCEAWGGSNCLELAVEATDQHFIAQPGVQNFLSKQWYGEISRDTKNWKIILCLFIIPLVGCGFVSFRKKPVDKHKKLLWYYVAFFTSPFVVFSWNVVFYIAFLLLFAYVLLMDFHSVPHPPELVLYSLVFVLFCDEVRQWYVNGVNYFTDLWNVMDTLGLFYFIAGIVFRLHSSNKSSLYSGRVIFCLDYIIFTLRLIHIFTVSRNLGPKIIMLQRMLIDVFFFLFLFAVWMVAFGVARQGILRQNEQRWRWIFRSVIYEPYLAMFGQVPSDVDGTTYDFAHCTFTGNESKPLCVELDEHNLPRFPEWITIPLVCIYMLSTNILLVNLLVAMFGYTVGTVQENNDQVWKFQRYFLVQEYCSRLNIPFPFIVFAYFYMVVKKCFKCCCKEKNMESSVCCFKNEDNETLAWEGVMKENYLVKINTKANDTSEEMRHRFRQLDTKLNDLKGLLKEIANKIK

`O=C(Nc1cccc2cnccc12)N1CCC[C@H]1c1nc(-c2cccc(F)c2)cs1`: in [1], the pIC50 is 7.09.
`CC(C)c1cccc(NC(=O)N2CCC[C@H]2c2ncc(-c3ccccc3)s2)c1`: the concentration at 0.5 h in [2] was 1400 ng/g; in [23], 2310 ng/g. In addition, the half-life was 6.36 min in [3] and 31.6 min in [8]. Further, the AUC in series [4] was determined as 495.955 ng·h/mL; in series [10], 598.873 ng·h/mL. Further, the MRT is 9.18 min in series [5] and 85.6 min in series [11]. Moreover, the results for the k el at 12 h in series [6] and in [9] were 0.000315 s⁻¹ and 0.00335 s⁻¹, respectively. In addition, the Activity entry in [7] and in series [13] was “Non-Toxic” in each case. This compound also displayed a Vd in series [12] of 16 L/kg. Moreover, the Kp at 0.5 h in series [14] came to 1.66. Moreover, the clearance was 367 mL/min/kg in series [15] and 400 mL/min/kg in series [19]. In addition, the pIC50 is less than 4.00 in series [16], less than 4.00 in series [22] and 8.58 in series [1]. The time to peak (Tmax) in series [17] is 42.7 min. This compound also had a Cmax in [18] of 311 ng/mL. The amount in solution in [20] (solubility at 2 h) came to 26 µg/mL (≈ 66.4 µM). Also, the bioavailability in [21] is 60%.
Take `O=C(Nc1cccc2cnccc12)N1CCC[C@H]1c1nc(-c2ccccc2)cs1`: the pIC50 in [1] is 7.17.
Regarding `CC(C)c1ccccc1NC(=O)N1CCC[C@H]1c1ncc(-c2ccccc2)s1`, the pIC50 in series [1] was 8.27.
In the case of `O=C(Nc1ccccc1[N+](=O)[O-])N1CCC[C@H]1c1ncc(-c2ccccc2)s1`, in series [1], the pIC50 is 7.91.
As for `COc1ccccc1NC(=O)N1CCC[C@H]1c1nc(-c2ccc(F)cc2)cs1`, the Activity entry in series [13] was “Toxic”. Also, in series [1], the pIC50 was 8.24.
As for `O=C(Nc1cccc2cnccc12)N1CCC[C@H]1c1nc(-c2ccc(F)cc2)cs1`, the pIC50 in series [1] was 7.61.
Same read-out and setting: then `O=C(Nc1ccc(Cl)cc1)N1CCC[C@H]1c1nc(-c2ccc(F)cc2)cs1`, with 7.97; and `O=C(Nc1ccc(F)cc1)N1CCC[C@H]1c1nc(-c2ccc(F)cc2)cs1`, with 7.61; and `Cc1ccc(C)c(NC(=O)N2CCC[C@H]2c2nc(-c3ccccc3)cs2)c1`, with 7.35.
Same read-out and setting: then `O=C(Nc1ccc(F)cc1)N1CCC[C@H]1c1nc(-c2ccccc2)cs1`, with 7.50.
For the compound `Cc1ccc(NC(=O)N2CCC[C@H]2c2ncc(-c3ccccc3)s2)c([N+](=O)[O-])c1`, the pIC50 in series [1] is 7.62.
As for `O=C(Nc1ccccc1Br)N[C@@H]1CCN(c2ccc(C(F)(F)F)cn2)C1` [SB-705498], the pIC50 is 5.80 in series [24] and 8.03 in series [1]. In addition, the Activity entry in [13] was “Non-Toxic”. Also, the Kp at 0.5 h in series [14] came to 0.5.
